Data: patent US10611747B2, “Pyrone based compounds for treating bacterial infections” (FORGE THERAPEUTICS, INC., priority 2015, dated 2020)
≈ marks a conversion by molar mass, not a printed value. Where two headings read alike, the source gives them in different places.

Columns and labels:
[1] = target: LpxC (Klebsiella pneumoniae subsp. pneumoniae, UniProt A6T4N9); test: Inhibition assay against Klebsiella pneumonae LpxC (LC-MS/MS); format: biochemical; details: LpxC 0.2 nM Kpn, 22° C., 60 minutes
Sequence of LpxC (A6T4N9 whole entry): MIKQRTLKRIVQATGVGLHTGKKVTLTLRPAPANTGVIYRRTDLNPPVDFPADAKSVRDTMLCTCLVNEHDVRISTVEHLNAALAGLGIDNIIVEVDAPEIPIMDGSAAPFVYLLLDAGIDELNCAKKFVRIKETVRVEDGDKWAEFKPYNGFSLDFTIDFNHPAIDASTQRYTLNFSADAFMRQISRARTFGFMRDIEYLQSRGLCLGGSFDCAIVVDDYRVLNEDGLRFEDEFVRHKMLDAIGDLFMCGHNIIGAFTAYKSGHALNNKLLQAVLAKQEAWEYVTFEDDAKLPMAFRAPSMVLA
Description: LpxC inhibition assays were performed using liquid chromatography with tandem mass spectrometry. Assays were performed, in duplicate, in opaque, 96-well microplates in a total assay volume of 50 μL. The incubation mixture contained: LpxC (0.2 nM Kpn), 0.8 μM UDP-3-O—[(R)-3-hydroxymyristoyl]-N-acetyl-glucosamine, 40 mM Bis-Tris/HCI buffer (pH 5.9), 5 mM sodium phosphate buffer (NaH2PO4/Na2HPO4, pH 7.0), 1 mM DTT, 0.1% (w/v) fatty-acid free BSA, 10% DMSO (v/v, with or without compound). The reactions were incubated at 22° C. for 60 minutes (with mild shaking), then terminated by the addition of 25 μL 0.25 N HCl. Samples were analyzed using a LC-MS system to measure native LpxC substrate and reaction product. IC50 analysis was done using GeneData Screener and a four parameter variable slope normalized to controls. Test compounds were prepared as 8-point dose-response curves (factor dilution 2) in triplicate, starting at 1 μM final concentration. Each assay plate included 6 wells used for the Z′ factor calculation, 3 as a positive control for the assay and 3 as a negative control. The robustness was calculated as the median Z′ factor for 5 plates.

[2] = test system: E. coli imp mutant; test: Bacterial susceptibility testing (MIC, broth microdilution); format: cell-based; details: Escherichia coli, read-out: MIC E. coli imp mutant
Description: (§1) Minimal inhibitory concentrations (MIC) were determined by the broth microdilution method in accordance with the Clinical and Laboratory Standards Institute (CLSI) guidelines. In brief, organism suspensions were adjusted to a 0.5 McFarland standard to yield a final inoculum between 3×10^5 and 7×10^5 colony-forming units (CFU)/mL. Drug dilutions and inocula were made in sterile, cation adjusted Mueller-Hinton Broth (Beckton Dickinson). An inoculum volume of 100 μL was added to wells containing 100 μL of broth with 2-fold serial dilutions of drug. All inoculated microdilution trays were incubated in ambient air at 35° C. for 18-24 h. […] Performance of the assay was monitored by the use of laboratory quality-control strains and levofloxacin, a compound with a defined MIC spectrum, in accordance with CLSI guidelines.

[3] = test system: E. coli delta tolC; test: as above; format: cell-based; details: Escherichia coli, 24 h, read-out: MIC E. coli delta tolC
Description: as §1

[4] = test system: S. aureus ATCC 29213; test: as above; format: cell-based; details: Staphylococcus aureus
Description: as §1

[5] = test system: E. coli ATCC 25922; test: as above; format: cell-based; details: Escherichia coli
Description: as §1

[6] = test system: E. coli BW25113; test: as above; format: cell-based; details: Escherichia coli, no FBS, 35° C., 18-24 h
Description: as §1

[7] = test system: P. aeruginosa 209; test: as above; format: cell-based; details: Pseudomonas aeruginosa, 209; broth microdilution, 35° C., 18-24 h; read-out: MIC P. aeruginosa 209
Description: as §1

[8] = test system: P. aeruginosa 210 delta mexAB-OprM; test: as above; format: cell-based; details: Pseudomonas aeruginosa, read-out: MIC P. aeruginosa 210 delta mexAB-OprM
Description: as §1

[9] = ATCC29213, broth microdilution, 35° C., 18-24 h, read-out: MIC S. aureus ATCC 29213
[10] = ATCC25922, no FBS, broth microdilution, 35° C., 18-24 h, read-out: MIC E. coli ATCC 25922-no FBS

Structure (SMILES) | IC50 [1] | MIC [2] | MIC [3] | MIC ([4]; ATCC29213, read-out: MIC S. aureus ATCC 29213) | MIC ([5]; ATCC25922, read-out: MIC E. coli ATCC 25922-no FBS) | MIC [6] | MIC [4, 9] | MIC [7] | MIC [5, 10] | MIC [8]
CNC(=O)c1ccc(C#CC#Cc2ccc(NCc3oc(CS(C)(=O)=O)cc(=O)c3O)cc2)cc1 [Compound 4, 4-((4-(((3-hydroxy-6-((methylsulfonyl)methyl)-4-oxo-4H-pyran-2-yl)methyl)amino)phenyl)buta-1,3-diyn-1-yl)-N-methylbenzamide] | > 0.1 µM | 8 to 32 mg/L (≈ 16.3 to 65.2 µM) | < 1 mg/L | > 32 mg/L | 1 to 8 mg/L (≈ 2.04 to 16.3 µM) |  |  |  |  | 
O=c1ccoc(CNc2ccc(C#CC#Cc3ccccc3)cc2)c1O [Compound 28] | > 0.1 µM | 1 to 8 mg/L (≈ 2.93 to 23.4 µM) | 1 to 8 mg/L (≈ 2.93 to 23.4 µM) |  |  | 1 to 8 mg/L (≈ 2.93 to 23.4 µM) | > 32 mg/L | > 32 mg/L | 1 to 8 mg/L (≈ 2.93 to 23.4 µM) | > 32 mg/L
O=C(c1ccc(C#CC#Cc2ccc(NCc3occc(=O)c3O)cc2)cc1)N1CCOCC1 [Compound 32] | 0.01 to 0.1 µM | 1 to 8 mg/L (≈ 2.2 to 17.6 µM) | < 1 mg/L |  |  | 1 to 8 mg/L (≈ 2.2 to 17.6 µM) | > 32 mg/L | > 32 mg/L | 1 to 8 mg/L (≈ 2.2 to 17.6 µM) | > 32 mg/L
CNC(=O)c1ccc(C#CC#Cc2ccc(NCc3occc(=O)c3O)cc2)cc1 [Compound 35] | > 0.1 µM | 1 to 8 mg/L (≈ 2.51 to 20.1 µM) | < 1 mg/L |  |  | 1 to 8 mg/L (≈ 2.51 to 20.1 µM) | > 32 mg/L | > 32 mg/L | 1 to 8 mg/L (≈ 2.51 to 20.1 µM) | > 32 mg/L
O=C(O)c1ccc(C#CC#Cc2ccc(NCc3occc(=O)c3O)cc2)cc1 [Compound 38] | > 0.1 µM | < 1 mg/L | < 1 mg/L |  |  | < 1 mg/L | > 32 mg/L | > 32 mg/L | 1 to 8 mg/L (≈ 2.59 to 20.8 µM) | 8 to 32 mg/L (≈ 20.8 to 83 µM)
O=C(c1ccc(C#CC#Cc2ccc(NCc3occc(=O)c3O)cc2)cc1)N1CC(O)C1 [Compound 39] | 0.01 to 0.1 µM | 1 to 8 mg/L (≈ 2.27 to 18.2 µM) | < 1 mg/L |  |  | 1 to 8 mg/L (≈ 2.27 to 18.2 µM) | > 32 mg/L | > 32 mg/L | 1 to 8 mg/L (≈ 2.27 to 18.2 µM) | 8 to 32 mg/L (≈ 18.2 to 72.7 µM)
CN1CCN(C(=O)c2ccc(C#CC#Cc3ccc(NCc4occc(=O)c4O)cc3)cc2)CC1 [Compound 40] | 0.01 to 0.1 µM | < 1 mg/L | < 1 mg/L |  |  | 1 to 8 mg/L (≈ 2.14 to 17.1 µM) | > 32 mg/L | > 32 mg/L | 1 to 8 mg/L (≈ 2.14 to 17.1 µM) | 8 to 32 mg/L (≈ 17.1 to 68.4 µM)
O=c1ccoc(CNc2ccc(C#CC#Cc3ccc(CN4CCOCC4)cc3)cc2)c1O [Compound 47] | 0.01 to 0.1 µM | 1 to 8 mg/L (≈ 2.27 to 18.2 µM) | 1 to 8 mg/L (≈ 2.27 to 18.2 µM) |  |  | 1 to 8 mg/L (≈ 2.27 to 18.2 µM) | > 32 mg/L | > 32 mg/L | 8 to 32 mg/L (≈ 18.2 to 72.6 µM) | > 32 mg/L
O=C(c1ccc(C#Cc2ccc(NCc3occc(=O)c3O)cc2)cc1)N1CC(O)C1 [Compound 54] |  | > 32 mg/L | 8 to 32 mg/L (≈ 19.2 to 76.8 µM) |  |  | > 32 mg/L | > 32 mg/L | > 32 mg/L | > 32 mg/L | > 32 mg/L
O=c1ccoc(CNc2ccc(C#Cc3ccc(CN4CCOCC4)cc3)cc2)c1O [Compound 55] |  | 1 to 8 mg/L (≈ 2.4 to 19.2 µM) | 1 to 8 mg/L (≈ 2.4 to 19.2 µM) |  |  | 1 to 8 mg/L (≈ 2.4 to 19.2 µM) | > 32 mg/L | > 32 mg/L | 1 to 8 mg/L (≈ 2.4 to 19.2 µM) | 8 to 32 mg/L (≈ 19.2 to 76.8 µM)
